Reference: patent US9034863B2, “Compositions and methods for inhibiting entry of a hepatic virus” (The Board of Trustees of the University of Illinois, priority 2008, dated 2015)

Legend:
Type in all cases: cell-based, Hepatitis C virus (HCV)
[1] = test system: HCV genotype 1b subgenomic replicon; assay: HCV sg1b replicon RNA replication in Huh7 cells, RT-qPCR; conditions: 72 hours post-treatment
[2] = test system: HCV genotype 2a subgenomic replicon; assay: HCV sg2a replicon RNA replication in Huh7 cells, RT-qPCR; conditions: 72 hours post-treatment
From the text: Huh7 cells, also known as Huh7/scr cells, are well-known in the art (Zhong, et al. (2005) Proc. Natl. Acad. Sci. USA 102, 9294-99; Gastaminza, et al. (2006) J. Virol. 80:11074-81; Zhong, et al. (2006) J. Virol. 80:11082-93; Sainz et al. (2009) PLoS ONE 4:e6561). […] The HCV sg2a replicon was established as previously described (Uprichard, et al. (2006) Virol. J. 3:89). Briefly the HCV genotype 2a subgenomic replicon RNA (psgJFH1; Kato, et al. (2003) Gastroenterology 125:1808-17) was XbaI linearized, in vitro transcribed using […] T7 (Ambion, Austin, Tex.) and transfected into cells using a modified electroporation protocol (Krieger, et al. (2001) J. Virol. 75(10):4614-24). All cells were cultured in complete Dulbecco's modified Eagle's medium (cDMEM) (Hyclone, Logan, Utah) supplemented with 10% fetal bovine serum (FBS) (Hyclone), 100 units/ml penicillin, […] streptomycin, and 2 mM L-glutamine (Gibco Invitrogen, Carlsbad, Calif.) and 500 μg/ml geneticin ((Invitrogen) for HCV replicon cells only).
(§1) Total cellular RNA was purified using an ABI PRISM™ 6100 Nucleic Acid PrepStation (Applied Biosystems), as per the manufacturer's instructions. […] HCV JFH-1 and human GAPDH RNA transcript levels were determined relative to a standard curve derived from serial dilutions of plasmid containing the JFH-1 HCV cDNA or the human GAPDH coding sequence, respectively. […]

HCVcc = assay: HCV foci reduction assay, acute HCVcc infection of Huh7 cells; conditions: added pre-, co- or post-infection
HCV-JFH-1 = assay: Chronic HCV-JFH-1 infection of Huh7-1 cells, inhibitor combinations, RT-qPCR 24-96 h (FIG. 3-5); conditions: for reduction of HCV levels (FIG. 3): PI 200 nM; for reduction of HCV levels (FIG. 3) / decrease in intracellular HCV load (FIG. 4B): IFN-α 100 U/ml; for decrease in intracellular HCV load (FIG. 4B): ferristatin 50 μM
Experimental: RT-qPCR analysis of intracellular HCV RNA levels in Huh7 cultures mock-treated, treated with ezetimibe (30 μM), PI (200 nM), IFN-α (100 U/ml), or indicated combinations thereof (n=3). Data presented are representative of multiple independent experiments.
FIG. 4A, Chronically infected Huh7-1 cell cultures (n=3) treated with ezetimibe (E), naringenin (N), interferon α (I), or combinations thereof, were harvested at 24, 48, 72 or 96 hours post-treatment, intracellular HCV levels were quantified by RT-qPCR, and are presented as HCV copies/μg RNA. FIG. 4B, Chronically infected Huh7-1 cell cultures (n=3) treated with ezetimibe (E), ferristatin (T), interferon α (I), or combinations thereof, were harvested at 24, 48, 72 or 96 hours post-treatment, intracellular HCV levels were quantified by RT-qPCR, and are presented as HCV copies/μg RNA.
Shown are the results of RT-qPCR analysis of intracellular HCV RNA levels in Huh7 cultures mock-treated, treated with ezetimibe (30 μM), polymerase inhibitor, RG7128 (1 μM), or a combination thereof (n=3).
For experiments analyzing the activity of ezetimibe in combination with a protease inhibitor, Huh7-1 cells were infected with HCV-JFH-1 and allowed to reach steady state levels of infection. The HCV-infected cells were seeded in a 96-well plate and treated with the following: medium alone, 30 μM ezetimibe, 200 nM ITMN5537, 100 μ/ml IFN-α, and combinations of the above drugs at the specified concentrations. Medium and drugs were replaced every 24 hours. Triplicate wells were harvested at 24, 48, 72 or 96 hours post-treatment, in 200 μl/well of 1×ABI lysis buffer and stored at −80° C. until RNA extraction.
Therefore, the therapeutic potential of an IFN-free antiviral cocktail was also investigated, using ezetimibe in combination with other direct acting inhibitors of HCV amplification, specifically an inhibitor of the HCV NS3/4A protease (ITMN 5537; Intermune, Brisbane, Calif.). Huh7-1 cells were infected with HCV-JFH-1 and allowed to reach steady state levels of infection. Cells were monotreated with protease inhibitor (PI) or ezetimibe or IFN alone or treated with combinations of PI+ezetimibe or PI+IFN or IFN+ezetimibe or a combination of all three inhibitors. Samples were harvested at 24, 48, 72 or 96 hours post-treatment, the intracellular RNA was extracted and RT-qPCR performed to quantify HCV copies.
Thus, parallel cultures of chronically infected Huh7-1 cells were established and subsequently treated with ezetimibe, naringenin or IFN-α, either alone or in combination. Treatments were replenished every 24 hours. Triplicate cultures of each treatment condition were harvested at 24, 48, 72 or 96 hours post-treatment and intracellular HCV levels were quantified by RT-qPCR (FIG. 4A). […] Thus, no evidence of synergy was observed when IFN-α was combined with an egress inhibitor that only blocks cell-free spread.
As an alternative method of determining the therapeutic importance of inhibiting HCV cell-to-cell spread, an inhibitor to TfR1 was used. TfR1 has also been identified as another host cell factor that is involved in cell-free entry of HCV into cells, but is not required for cell-to-cell-mediated HCV entry. Thus, unlike ezetimibe which inhibits both cell-free and cell-to-cell HCV spread, the TfR1 inhibitor, ferristatin, only blocks cell-free virus spread. Again, chronically infected Huh7-1 cell cultures were established and treated with ezetimibe (30 μM), ferristatin (50 μM), or IFN-α (100 U/ml), either alone or in combination and treatments were replenished every 24 hours. Intracellular HCV copies were quantified from triplicate cultures by RT-qPCR at 24, 48, 72 or 96 hours post-treatment (FIG. 4B).
Huh7-1 cells were infected with HCV-JFH-1 and allowed to reach steady state levels of infection. Cells were monotreated with HCV polymerase inhibitor RG7128 (1 μM) or ezetimibe (30 μM) alone or treated with a combination of RG7128 and ezetimibe. […]

HCVcc JFH-1 = assay: Chronic HCVcc infection in growing Huh7 cells, long-term treatment, RT-qPCR (FIG. 2)
Experimental: Cultures of growing Huh7 cells were inoculated with HCVcc JFH-1 at an MOT of 0.01 FFU/cell. Infected cultures were maintained for an additional 10 days to allow HCV RNA to reach steady-state levels. FIG. 2A, Cultures were mock treated, treated with ezetimibe alone (30 μM), IFN-α (100 U/ml) alone, or ezetimibe (30 μM) plus IFN-α (100 U/ml) in combination. Treatments were maintained as cultures were passaged. FIG. 2B, After 70 days IFN-α or combination ezetimibe plus IFN-α treatment, treatment was either continued (open shapes) or discontinued (filled shapes). […] Results are graphed as means±s.e.m. for triplicate samples. The data presented are representative of two independent experiments.
For experiments in growing cells, Huh7 cells seeded at 1×10^6 cells in a T75 cell culture flask (Corning) were infected with JFH-1 HCVcc at a MOI of 0.01 FFU/cell and subsequently cultured for 10 days to allow HCV RNA to reach steady-state levels. On day 10 post-infection, cells were split 1:4 and re-plated into T25 culture flasks (Corning). Twenty four hours post seeding, individual flasks were mock-treated with cDMEM or treated with cDMEM containing IFN-α (100 U/ml), ezetimibe (30 μM) or a combination of both IFN-α (100 U/ml) and ezetimibe (30 μM). Throughout the course of the experiment, fresh media with treatments was replenished every two days and cells were trypsinized just before reaching confluence and re-plated at a dilution of 1:3 to maintain active cell growth. […]
as §1
To confirm HCV clearance, drug treatments were subsequently discontinued on day 70 and HCV RNA levels were monitored for an additional 30 days.

Which “reduction of sg1b RNA levels” value [1] does the source give for `CC[C@H](C)C(=O)O[C@H]1C[C@@H](C)C=C2C=C[C@H](C)[C@H](CC[C@@H]3C[C@@H](O)CC(=O)O3)[C@H]21` [Lovastatin] here?
Its value is 22 fold.

And the “sg2a HCV RNA levels” value [2]?
The value was “had no affect”.

And the “inhibition of HCVcc foci formation” value (HCVcc)?
The value was “had no affect”.

`CC(C)(C)OC(=O)N[C@H]1CCCCC/C=C\[C@@H]2C[C@@]2(C(=O)NS(=O)(=O)C2(C)CC2)NC(=O)[C@@H]2C[C@@H](OC(=O)N3Cc4cccc(F)c4C3)CN2C1=O` [PI] was tested. Which “reduction of HCV levels (FIG. 3)” value (HCV-JFH-1; ezetimibe 30 μM) did it give?
The value was “less than a log”.

For `CC(C)C(=O)OC[C@H]1O[C@@H](n2ccc(N)nc2=O)[C@](C)(F)[C@@H]1OC(=O)C(C)C` [RG7128], which “reduction of HCV levels (FIG. 5)” value (HCV-JFH-1; RG7128 1 μM, ezetimibe 30 μM, normalized to Mock) is on record?
Its value is “less than a log”.

Which “decrease in intracellular HCV load (FIG. 4B)” value (HCV-JFH-1; ezetimibe 30 μM) does the source give for `Cc1[n-]n(-c2ccc(S(=O)(=O)O)cc2)c(=O)c1N=Nc1ccc(-c2ccc(N=Nc3ccc4c(S(=O)(=O)O)cc(S(=O)(=O)O)c(N)c4c3[O-])c([O-])c2)cc1[O-].[Cu+2].[Cu+2]` [ferristatin] here?
The value was “neither ezetimibe nor ferristatin alone reduced intracellular HCV load”.

Which results are given for IFN-α?
reduction of HCV levels (FIG. 3) (HCV-JFH-1; ezetimibe 30 μM): a log; decrease in intracellular HCV load (FIG. 4B) (HCV-JFH-1; ezetimibe 30 μM): a log decrease; reduction of HCV copies (FIG. 4A) (HCV-JFH-1; ezetimibe, naringenin, IFN-α alone or in combination): a log decrease; decrease in intracellular HCV RNA levels (HCVcc JFH-1; by day 32 post-treatment vs mock, IFN-α 100 U/ml, ezetimibe 30 μM): ~2 logs; rebound in HCV RNA after treatment discontinued (HCVcc JFH-1; discontinued on day 70, monitored 30 days): immediate rebound
